# Legend:
# Assay type in all cases: functional
# CCRF-CEM = assay: Cytotoxicity against human CCRF-CEM cells assessed as growth inhibition at 10 uM after 48 hrs by SRB assay; settings: read-out: GI
# [1] = Cytotoxicity against human HL-60(TB) cells assessed as growth inhibition at 10 uM after 48 hrs by SRB assay; settings: HL-60, 48 h, read-out: GI
# K562 = assay: Cytotoxicity against human K562 cells assessed as growth inhibition at 10 uM after 48 hrs by SRB assay; settings: K562, 48 h, read-out: GI
# [2] = Cytotoxicity against human MOLT4 cells assessed as growth inhibition at 10 uM after 48 hrs by SRB assay; settings: MOLT-4, 48 h, read-out: GI
# [3] = Cytotoxicity against human RPMI8226 cells assessed as growth inhibition at 10 uM after 48 hrs by SRB assay; settings: RPMI-8226, 48 h, read-out: GI
# SR = assay: Cytotoxicity against human SR cells assessed as growth inhibition at 10 uM after 48 hrs by SRB assay; settings: read-out: GI
# A549 = assay: Cytotoxicity against human A549 cells assessed as growth inhibition at 10 uM after 48 hrs by SRB assay; settings: A549, 48 h, read-out: GI
# [4] = Cytotoxicity against human HOP92 cells assessed as growth inhibition at 10 uM after 48 hrs by SRB assay; settings: HOP-92, 48 h, read-out: GI
# NCI-H226 = assay: Cytotoxicity against human NCI-H226 cells assessed as growth inhibition at 10 uM after 48 hrs by SRB assay; settings: NCI-H226, 48 h, read-out: GI
# NCI-H23 = assay: Cytotoxicity against human NCI-H23 cells assessed as growth inhibition at 10 uM after 48 hrs by SRB assay; settings: NCI-H23, 48 h, read-out: GI
# NCI-H522 = assay: Cytotoxicity against human NCI-H522 cells assessed as growth inhibition at 10 uM after 48 hrs by SRB assay; settings: NCI-H522, 48 h, read-out: GI
# [5] = Cytotoxicity against human HCT116 cells assessed as growth inhibition at 10 uM after 48 hrs by SRB assay; settings: HCT-116, 48 h, read-out: GI
# [6] = Cytotoxicity against human HCT15 cells assessed as growth inhibition at 10 uM after 48 hrs by SRB assay; settings: HCT-15, 48 h, read-out: GI
# KM12 = assay: Cytotoxicity against human KM12 cells assessed as growth inhibition at 10 uM after 48 hrs by SRB assay; settings: KM12, 48 h, read-out: GI
# [7] = Cytotoxicity against human SW620 cells assessed as growth inhibition at 10 uM after 48 hrs by SRB assay; settings: SW-620, 48 h, read-out: GI
# [8] = Cytotoxicity against human SF268 cells assessed as growth inhibition at 10 uM after 48 hrs by SRB assay; settings: SF-268, 48 h, read-out: GI
# [9] = Cytotoxicity against human SNB19 cells assessed as growth inhibition at 10 uM after 48 hrs by SRB assay; settings: SNB-19, 48 h, read-out: GI
# [10] = Cytotoxicity against human SNB75 cells assessed as growth inhibition at 10 uM after 48 hrs by SRB assay; settings: SNB-75, 48 h, read-out: GI
# [11] = Cytotoxicity against human LOXIMVI cells assessed as growth inhibition at 10 uM after 48 hrs by SRB assay; settings: LOX IMVI, read-out: GI
# Malme-3M = assay: Cytotoxicity against human MALME-3M cells assessed as growth inhibition at 10 uM after 48 hrs by SRB assay; settings: read-out: GI
# M14 = assay: Cytotoxicity against human M14 cells assessed as growth inhibition at 10 uM after 48 hrs by SRB assay; settings: M14, 48 h, read-out: GI
# MDA-MB-435 = assay: Cytotoxicity against human MDA-MB-435 cells assessed as growth inhibition at 10 uM after 48 hrs by SRB assay; settings: MDA-MB-435, 48 h, read-out: GI
# SK-MEL-2 = assay: Cytotoxicity against human SK-MEL-2 cells assessed as growth inhibition at 10 uM after 48 hrs by SRB assay; settings: SK-MEL-2, 48 h, read-out: GI
# SK-MEL-28 = assay: Cytotoxicity against human SK-MEL-28 cells assessed as growth inhibition at 10 uM after 48 hrs by SRB assay; settings: SK-MEL-28, 48 h, read-out: GI
# SK-MEL-5 = assay: Cytotoxicity against human SK-MEL-5 cells assessed as growth inhibition at 10 uM after 48 hrs by SRB assay; settings: SK-MEL-5, 48 h, read-out: GI
# [12] = Cytotoxicity against human UACC257 cells assessed as growth inhibition at 10 uM after 48 hrs by SRB assay; settings: UACC-257, 48 h, read-out: GI
# [13] = Cytotoxicity against human UACC62 cells assessed as growth inhibition at 10 uM after 48 hrs by SRB assay; settings: UACC-62, 48 h, read-out: GI
# [14] = Cytotoxicity against human OVCAR3 cells assessed as growth inhibition at 10 uM after 48 hrs by SRB assay; settings: OVCAR-3, 48 h, read-out: GI
# [15] = Cytotoxicity against human OVCAR4 cells assessed as growth inhibition at 10 uM after 48 hrs by SRB assay; settings: OVCAR-4, 48 h, read-out: GI
# [16] = Cytotoxicity against human OVCAR8 cells assessed as growth inhibition at 10 uM after 48 hrs by SRB assay; settings: OVCAR-8, 48 h, read-out: GI
# [17] = Cytotoxicity against human NCI-ADR-RES cells assessed as growth inhibition at 10 uM after 48 hrs by SRB assay; settings: read-out: GI
# 786-0 = assay: Cytotoxicity against human 786-0 cells assessed as growth inhibition at 10 uM after 48 hrs by SRB assay; settings: 786-0, 48 h, read-out: GI
# A498 = assay: Cytotoxicity against human A498 cells assessed as growth inhibition at 10 uM after 48 hrs by SRB assay; settings: A498, 48 h, read-out: GI
# ACHN = assay: Cytotoxicity against human ACHN cells assessed as growth inhibition at 10 uM after 48 hrs by SRB assay; settings: read-out: GI
# [18] = Cytotoxicity against human Caki1 cells assessed as growth inhibition at 10 uM after 48 hrs by SRB assay; settings: CAKI-1, 48 h, read-out: GI
# [19] = Cytotoxicity against human RXF393 cells assessed as growth inhibition at 10 uM after 48 hrs by SRB assay; settings: RXF 393, 48 h, read-out: GI
# [20] = Cytotoxicity against human UO31 cells assessed as growth inhibition at 10 uM after 48 hrs by SRB assay; settings: UO-31, 48 h, read-out: GI
# [21] = Cytotoxicity against human PC3 cells assessed as growth inhibition at 10 uM after 48 hrs by SRB assay; settings: PC-3, 48 h, read-out: GI
# MDA-MB-231 = assay: Cytotoxicity against human MDA-MB-231 cells assessed as growth inhibition at 10 uM after 48 hrs by SRB assay; settings: MDA-MB-231, 48 h, read-out: GI
# [22] = Cytotoxicity against human BT549 cells assessed as growth inhibition at 10 uM after 48 hrs by SRB assay; settings: BT-549, 48 h, read-out: GI
# T47D = assay: Cytotoxicity against human T47D cells assessed as growth inhibition at 10 uM after 48 hrs by SRB assay; settings: read-out: GI
# MDA-MB-468 = assay: Cytotoxicity against human MDA-MB-468 cells assessed as growth inhibition at 10 uM after 48 hrs by SRB assay; settings: MDA-MB-468, 48 h, read-out: GI
# [23] = Cytotoxicity against human OVCAR1 cells assessed as growth inhibition at 10 uM after 48 hrs by SRB assay; settings: OVCAR1, 48 h, read-out: GI
# EKVX = assay: Cytotoxicity against human EKVX cells assessed as growth inhibition at 10 uM after 48 hrs by SRB assay; settings: read-out: GI
# [24] = Cytotoxicity against human SF295 cells assessed as growth inhibition at 10 uM after 48 hrs by SRB assay; settings: SF-295, 48 h, read-out: GI
# U-251 = assay: Cytotoxicity against human U251 cells assessed as growth inhibition at 10 uM after 48 hrs by SRB assay; settings: U-251, 48 h, read-out: GI
# [25] = Cytotoxicity against human IGROV1 cells assessed as growth inhibition at 10 uM after 48 hrs by SRB assay; settings: IGROV-1, 48 h, read-out: GI
# [26] = Cytotoxicity against human OVCAR5 cells assessed as growth inhibition at 10 uM after 48 hrs by SRB assay; settings: OVCAR-5, 48 h, read-out: GI
# [27] = Cytotoxicity against human SKOV3 cells assessed as growth inhibition at 10 uM after 48 hrs by SRB assay; settings: SK-OV-3, 48 h, read-out: GI
# SN12C = assay: Cytotoxicity against human SN12C cells assessed as growth inhibition at 10 uM after 48 hrs by SRB assay; settings: read-out: GI
# MCF7 = assay: Cytotoxicity against human MCF7 cells assessed as growth inhibition at 10 uM after 48 hrs by SRB assay; settings: MCF7, 48 h, read-out: GI
# [28] = Cytotoxicity against human Hs 578T cells assessed as growth inhibition at 10 uM after 48 hrs by SRB assay; settings: read-out: GI
# [29] = Cytotoxicity against human NCI-H322 cells assessed as growth inhibition at 10 uM after 48 hrs by SRB assay; settings: NCI-H322, 48 h, read-out: GI
compound,measurement,setting,value
COc1cc(NC(=O)CSc2nc3ccc(C)cc3c(=O)n2-c2ccccc2)cc(OC)c1OC,inhibition of growth at 10 µM,CCRF-CEM,17%
same,inhibition of growth at 10 µM,[1],11%
same,inhibition of growth at 10 µM,K562,13%
same,inhibition of growth at 10 µM,[2],41%
same,inhibition of growth at 10 µM,[3],24%
same,inhibition of growth at 10 µM,SR,58%
same,inhibition of growth at 10 µM,A549,17%
same,inhibition of growth at 10 µM,[4],51%
same,inhibition of growth at 10 µM,NCI-H226,18%
same,inhibition of growth at 10 µM,NCI-H23,16%
same,inhibition of growth at 10 µM,NCI-H522,32%
same,inhibition of growth at 10 µM,[5],13%
same,inhibition of growth at 10 µM,[6],19%
same,inhibition of growth at 10 µM,KM12,25%
same,inhibition of growth at 10 µM,[7],13%
same,inhibition of growth at 10 µM,[8],14%
same,inhibition of growth at 10 µM,[9],13%
same,inhibition of growth at 10 µM,[10],43%
same,inhibition of growth at 10 µM,[11],25%
same,inhibition of growth at 10 µM,Malme-3M,10%
same,inhibition of growth at 10 µM,M14,21%
same,inhibition of growth at 10 µM,MDA-MB-435,53%
same,inhibition of growth at 10 µM,SK-MEL-2,14%
same,inhibition of growth at 10 µM,SK-MEL-28,17%
same,inhibition of growth at 10 µM,SK-MEL-5,23%
same,inhibition of growth at 10 µM,[12],18%
same,inhibition of growth at 10 µM,[13],23%
same,inhibition of growth at 10 µM,[14],16%
same,inhibition of growth at 10 µM,[15],32%
same,inhibition of growth at 10 µM,[16],13%
same,inhibition of growth at 10 µM,[17],25%
same,inhibition of growth at 10 µM,786-0,11%
same,inhibition of growth at 10 µM,A498,38%
same,inhibition of growth at 10 µM,ACHN,10%
same,inhibition of growth at 10 µM,[18],12%
same,inhibition of growth at 10 µM,[19],14%
same,inhibition of growth at 10 µM,[20],49%
same,inhibition of growth at 10 µM,[21],18%
same,inhibition of growth at 10 µM,MDA-MB-231,23%
same,inhibition of growth at 10 µM,[22],21%
same,inhibition of growth at 10 µM,T47D,19%
same,inhibition of growth at 10 µM,MDA-MB-468,31%
same,inhibition of growth at 10 µM,[23],11%
COc1cc(NC(=O)CSc2nc3ccc(Cl)cc3c(=O)n2-c2ccc(F)cc2)cc(OC)c1OC,inhibition of growth at 10 µM,K562,20%
same,inhibition of growth at 10 µM,[2],39%
same,inhibition of growth at 10 µM,[3],61%
same,inhibition of growth at 10 µM,A549,17%
same,inhibition of growth at 10 µM,EKVX,33%
same,inhibition of growth at 10 µM,[4],64%
same,inhibition of growth at 10 µM,NCI-H226,17%
same,inhibition of growth at 10 µM,NCI-H23,15%
same,inhibition of growth at 10 µM,NCI-H522,21%
same,inhibition of growth at 10 µM,[5],21%
same,inhibition of growth at 10 µM,[6],16%
same,inhibition of growth at 10 µM,KM12,15%
same,inhibition of growth at 10 µM,[8],21%
same,inhibition of growth at 10 µM,[24],20%
same,inhibition of growth at 10 µM,[9],18%
same,inhibition of growth at 10 µM,[10],28%
same,inhibition of growth at 10 µM,U-251,18%
same,inhibition of growth at 10 µM,[11],27%
same,inhibition of growth at 10 µM,Malme-3M,15%
same,inhibition of growth at 10 µM,M14,16%
same,inhibition of growth at 10 µM,MDA-MB-435,10%
same,inhibition of growth at 10 µM,SK-MEL-5,27%
same,inhibition of growth at 10 µM,[13],29%
same,inhibition of growth at 10 µM,[25],14%
same,inhibition of growth at 10 µM,[14],20%
same,inhibition of growth at 10 µM,[15],23%
same,inhibition of growth at 10 µM,[26],12%
same,inhibition of growth at 10 µM,[16],12%
same,inhibition of growth at 10 µM,[17],19%
same,inhibition of growth at 10 µM,[27],13%
same,inhibition of growth at 10 µM,786-0,25%
same,inhibition of growth at 10 µM,A498,66%
same,inhibition of growth at 10 µM,ACHN,15%
same,inhibition of growth at 10 µM,[18],29%
same,inhibition of growth at 10 µM,[19],20%
same,inhibition of growth at 10 µM,SN12C,22%
same,inhibition of growth at 10 µM,[20],60%
same,inhibition of growth at 10 µM,[21],27%
same,inhibition of growth at 10 µM,MCF7,13%
same,inhibition of growth at 10 µM,MDA-MB-231,34%
same,inhibition of growth at 10 µM,[28],26%
same,inhibition of growth at 10 µM,T47D,28%
same,inhibition of growth at 10 µM,[29],14%

# From ChEMBL document CHEMBL3784933, “Synthesis and antitumor evaluation of trimethoxyanilides based on 4(3H)-quinazolinone scaffolds” (2016)
